This is an account of results in patent US9486457B2, “Use of cinnabarinic acid as a modulator of immune responses in autoimmune disorders” (The Regents of the University of California, priority 2010, dated 2016).

Entries after “also recorded” stand apart in the source; their conditions may differ.

For series [1], the system named is experimental allergic encephalomyelitis (EAE). The series is described as follows: Experimental allergic/autoimmune encephalomyelitis (EAE) induced with MOG peptide and CFA. Type of series: in vivo, C57BL/6 mice. As to conditions: for development / induction of EAE (disease occurrence and severity): single dose (1 mg/mouse) at Day 0 within the emulsion containing MOG peptide and adjuvant, compared to DMSO. The protocol:
FIGS. 10A and 10B illustrate the number or frequency of cytokine producing cells within the CNS (or spleen) of mice treated at day 0 with 1 dose of CA (1 mg/mouse) or vehicle (DMSO) within the emulsion contain MOG peptide and adjuvant. Representative flow plots are shown at the bottom of the figures. EAE survival curve for 10 animals treated with CA or with DMSO showing that 1/10 animals treated with CA gets sick whereas 9/10 animals treated with vehicle (DMSO) are sick at the indicated timepoint.
However, TCDD and FICZ are both known AHR agonists, like CA, whereas 3,4 DAA appears to act as an antagonist. Therefore the regulation of the Th17/Th22/Treg cell differentiation pathways at the level of the AHR is likely to be more complex than merely reflecting the presence of an agonistic or antagonistic ligand. To assess whether CA was protective in EAE we performed a series of experiments in which CA was administered in a single dose (1 mg/mouse) contained within the emulsion used to induce disease.

The target in the next series is T1, AHR (Mus musculus, UniProt P30561).
T1 construct: murine hepatoma cell line stably transfected with an AhR-responsive (AhR-eGFP) reporter construct; endogenous in cells
T1 sequence (P30561 10-848): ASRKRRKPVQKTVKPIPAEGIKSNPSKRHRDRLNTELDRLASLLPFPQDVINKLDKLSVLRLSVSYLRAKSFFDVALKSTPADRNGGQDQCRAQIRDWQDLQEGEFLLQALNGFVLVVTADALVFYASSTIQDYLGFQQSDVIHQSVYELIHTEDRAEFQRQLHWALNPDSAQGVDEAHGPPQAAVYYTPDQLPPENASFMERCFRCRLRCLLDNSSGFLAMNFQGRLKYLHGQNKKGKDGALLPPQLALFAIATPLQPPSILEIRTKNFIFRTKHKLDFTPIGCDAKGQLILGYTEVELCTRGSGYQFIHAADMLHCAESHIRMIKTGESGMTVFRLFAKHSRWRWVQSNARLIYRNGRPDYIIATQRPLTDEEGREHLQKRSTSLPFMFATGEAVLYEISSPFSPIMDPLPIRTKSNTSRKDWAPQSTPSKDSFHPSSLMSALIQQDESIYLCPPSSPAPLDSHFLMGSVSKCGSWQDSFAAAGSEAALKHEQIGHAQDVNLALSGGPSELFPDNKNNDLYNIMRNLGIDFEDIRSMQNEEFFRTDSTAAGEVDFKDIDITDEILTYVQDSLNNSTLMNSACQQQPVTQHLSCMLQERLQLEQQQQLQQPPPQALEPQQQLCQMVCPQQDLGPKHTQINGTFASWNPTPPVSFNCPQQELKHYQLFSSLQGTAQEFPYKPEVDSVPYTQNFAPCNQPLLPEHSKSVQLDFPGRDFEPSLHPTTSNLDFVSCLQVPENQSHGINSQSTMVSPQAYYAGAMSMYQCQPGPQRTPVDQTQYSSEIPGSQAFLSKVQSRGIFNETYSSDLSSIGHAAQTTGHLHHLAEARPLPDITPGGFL
The series is described as follows: AHR-responsive (dioxin responsive element) GFP reporter assay in H1G1 mouse hepatoma cells. Type of series: cell-based. The following applies: agonist mode. The text has this: (§1) We performed a precursory screen of all tryptophan metabolites including both 3-HKA and 3-HAA to bind to and act as agonists or antagonists of the AHR using two separate assays. First we examined the ability of 3-HKyn, 3-HAA, and PA to displace TCDD binding to the human AHR protein in vitro (20). […] We also measured AHR activation using a mouse hepatoma cell line (H1G1) that stably expresses a green fluorescent protein (GFP) reporter construct downstream of a series of dioxin responsive elements (FIG. 7A) (21).

Another series has as its target T2, human AHR protein (Homo sapiens, UniProt P35869).
T2 sequence (P35869 11-848): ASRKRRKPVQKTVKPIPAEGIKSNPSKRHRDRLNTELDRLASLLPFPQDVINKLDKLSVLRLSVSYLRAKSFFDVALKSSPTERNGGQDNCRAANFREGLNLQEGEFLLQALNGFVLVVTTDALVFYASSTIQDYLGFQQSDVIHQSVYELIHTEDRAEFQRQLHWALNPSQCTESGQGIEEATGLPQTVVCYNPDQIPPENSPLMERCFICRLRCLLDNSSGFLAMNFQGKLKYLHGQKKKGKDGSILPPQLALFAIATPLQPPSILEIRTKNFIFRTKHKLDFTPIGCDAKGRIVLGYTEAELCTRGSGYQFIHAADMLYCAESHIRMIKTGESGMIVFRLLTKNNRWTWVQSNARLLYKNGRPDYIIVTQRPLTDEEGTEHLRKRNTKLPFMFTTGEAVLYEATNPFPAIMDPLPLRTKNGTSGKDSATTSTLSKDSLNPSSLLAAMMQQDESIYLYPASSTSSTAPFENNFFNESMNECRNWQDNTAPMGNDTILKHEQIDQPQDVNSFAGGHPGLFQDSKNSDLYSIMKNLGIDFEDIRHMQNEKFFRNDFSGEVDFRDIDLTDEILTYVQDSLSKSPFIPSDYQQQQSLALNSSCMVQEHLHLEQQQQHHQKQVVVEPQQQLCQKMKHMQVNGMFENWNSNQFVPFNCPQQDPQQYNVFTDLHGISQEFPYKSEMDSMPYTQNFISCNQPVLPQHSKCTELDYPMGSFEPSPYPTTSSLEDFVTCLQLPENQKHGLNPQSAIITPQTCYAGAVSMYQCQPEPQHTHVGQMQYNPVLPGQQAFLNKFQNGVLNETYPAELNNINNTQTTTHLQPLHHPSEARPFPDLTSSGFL
The series is described as follows: Displacement of TCDD binding to in vitro translated human AHR protein. As to conditions: cell-free.
Excerpt: as §1

The subject of a further series is human naïve CD4+ T cells. The series is described as follows: IL-22 induction in cultured human naïve CD4+ T cells stimulated with anti-CD3/anti-CD28 under Th17 polarizing conditions. The following applies: CA 25 μM in FIG. 8D. Type of series: cell-based. From the text:
This is AHR dependent as inclusion of an AHR antagonist fully abrogated effect.
FIG. 8: CA is an endogenous AhR agonist generated by oxidative dimerization of 3-HAA. (A) An alternative pathway of 3-HAA metabolism leads to the generation of CA either by non-enzymatic (oxidation) or enzymatic (laccase, ceruloplasmin) processes. CA is structurally similar to the synthetic AhR ligand TCDD. […] Data are representative of three similar experiments.

For series [2], the system named is naïve (CD45RA+CCR7+CD95−CD25−) CD4+ T cells. The series is described as follows: Foxp3 induction in stimulated naïve CD4+ T cells. Type of series: cell-based, human. As to conditions: stimulated naïve CD4+ T cells in vitro. The text has this:
FIG. 9: The synthetic 3-HAA analogue 3,4 DAA (Tranilast) is an AhR antagonist and promotes the induction of Foxp3 by stimulated CD4+ T cells. (A) 3,4 DAA shares some structural similarities to 3-HAA (highlighted region).
Therefore we asked whether T cells treated with 3,4 DAA might be prompted to differentiate into Treg cells through upregulation of the transcription factor Foxp3 (26).

A further series concerns lymphocytes. The series is described as follows: CYP1A1 transcription within lymphocytes. Type of series: cell-based. From the text: (§2) 3-HAA is particularly susceptible to oxidation, resulting in the formation of the metabolite cinnabarinic acid (CA) through dimerization of two molecules of 3-HAA (24). […] In addition, CA has potent effects on thymocyte maturation (25) not unlike what has been observed in rodents treated with TCDD (26-28) or in transgenic mice with a constitutively active AHR (29). To test the hypothesis that CA is an AHR ligand, we obtained pure CA, prepared through a chemical synthesis using 3-HAA as a starting material and purified by HPLC, and analyzed its ability to bind to and activate the AHR in vitro.

Another series relates to zebrafish embryos. The series is described as follows: CYP1A1 induction in zebrafish embryos. Type of series: in vivo. As to conditions: within 72 hours.
Excerpt: as §2

Setting [3] is: single dose 1 mg/mouse in the emulsion.

Consider `Nc1c(C(=O)O)c2nc3c(C(=O)O)cccc3oc-2cc1=O` [Cinnabarinic Acid, cinnabarinic acid], for which, in series [1] (10 animals, 1 dose of CA (1 mg/mouse) at day 0, 9/10 with vehicle (DMSO)), the “animals that get sick (EAE survival curve)” value is 1/10. Also, the “Foxp3+ Treg cells in the CNS” value in series [1] (setting [3]) is “but not in the CNS”. Moreover, the “Foxp3+ Treg cells in the spleen” value in series [1] (setting [3]) is on record as “slight, but significant, increase in Foxp3+ Treg cells in the spleen”. Further, in series [1] (setting [3]), the “frequency and number of Th17 and Th22 cells in the spleen” value is “increase in the frequency and number of Th17 and Th22 cells in the spleen”. Besides, in series [1] (setting [3]), the “frequency of infiltrating Th17 and Th22 cells in the CNS” value was “decrease in the frequency of infiltrating Th17 and Th22 cells”. The “number of infiltrating T cells in the central nervous system (CNS)” value in series [1] (setting [3]) is recorded as “greatly reduced number of infiltrating T cells in the central nervous system (CNS)”. Further, the “development / induction of EAE (disease occurrence and severity)” value is “inhibits the development of experimental allergic encephalomyelitis (EAE); also recorded: inhibits the induction of EAE” in series [1]; “suppress autoimmunity in a mouse model of multiple sclerosis; also recorded: significant reduction of disease occurrence and severity; also recorded: almost completely block the development of EAE” in series [1] (listed as CA); “inhibits the induction of EAE” in series [1] (listed as Cinnabaric Acid). In series [1] (splenocytes from CA treated mice), the “proliferation of splenocytes on restimulation with MOG peptide” value was “significantly greater amount of proliferation”. Besides, the “AHR agonist activity (activation of AHR-responsive reporter)” value is “activates AHR responsive (Dioxin Responsive Elements)” at AHR; “able to bind to and activate the AHR at much lower concentrations than that observed for 3-HAA; also recorded: potent agonist of the AhR” on AHR (listed as CA). Also, the “displacement / inhibition of TCDD binding to human AHR” value is “displaces Dioxin (TCDD)” at human AHR protein; “able to bind to and activate the AHR at much lower concentrations than that observed for 3-HAA; also recorded: dose-dependent inhibition of TCDD binding” on human AHR protein (listed as CA). In addition, the results for the IL-22 induction entry in the series on human naïve CD4+ T cells and in the series with human naïve CD4+ T cells (listed as CA) were “potently induces IL-22” and “stimulate the differentiation of a newly defined subset of human T cells that produce the cytokine IL-22; also recorded: promoted IL-22 production more strongly than any other tryptophan metabolite tested; also recorded: potently induces IL-22”, respectively. Moreover, the “Foxp3 expression (frequency of CD4+Foxp3+ T cells)” value in series [2] was “did not appear to promote Foxp3 upregulation”. Moreover, the CYP1A1 transcription entry with lymphocytes is “upregulation of CYP1A1 transcription within lymphocytes”. In the series on zebrafish embryos, the CYP1A1 induction result was “potent induction of CYP1A1 in zebrafish embryos”.
